From article PMC6982798, “Evaluation of Isoflavones as Bone Resorption Inhibitors upon Interactions with Receptor Activator of Nuclear Factor-κB Ligand (RANKL)” (Molecules, 2020)

Target: T1, sRANKL recombinant (RANKL) (Homo sapiens, UniProt O14788)
T1 construct: gene TNFSF11; human is named only for the docking model (3URF), whose residue numbers (K181, Y235, Q237, Y241) fit human RANKL
T1 sequence (O14788 140-317 limits assumed): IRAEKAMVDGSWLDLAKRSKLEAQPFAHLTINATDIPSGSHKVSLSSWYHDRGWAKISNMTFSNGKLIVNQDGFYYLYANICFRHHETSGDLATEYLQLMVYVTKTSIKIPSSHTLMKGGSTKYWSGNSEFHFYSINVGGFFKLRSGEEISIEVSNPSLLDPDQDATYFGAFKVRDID
Experiment: isothermal titration calorimetry (ITC), single binding mode fit
Details: read-out: KA × 10^3 (L/mol) (converted)
From the text: isothermal titration calorimetry (ITC), single binding mode fit on sRANKL recombinant (RANKL)

Row | Structure (SMILES) | Kd
1 | O=c1oc2cc(O)ccc2c2oc3cc(O)ccc3c12 [Coumestrol] | 1430 µM
2 | O=c1c(-c2ccc(O)cc2)coc2cc(O)ccc12 [Daidzein] | 62.7 µM
3 | COc1ccc(-c2coc3cc(O)cc(O)c3c2=O)cc1 [Biochanin A] | 833 µM

Continued, values first:

Row | Kd | Structure (SMILES)
4 | 318 µM | COc1ccc(-c2coc3cc(O)ccc3c2=O)cc1 [Formononetin]
5 | 317 µM | O=c1c(-c2ccc(O)cc2)coc2cc(O)cc(O)c12 [Genistein]
